In general, IC50 refers to the concentration that gives 50% inhibition. The low end stands for greater potency in that assay, the high end for weaker potency in that assay.

In one assay the target is urease (JBU; EC 3.5.1.5) (Canavalia ensiformis, UniProt P07374). Put plainly: In vitro urease inhibitory activity. In kind it is biochemical, Jack bean.
A further assay concerns the target Jack bean urease (Canavalia ensiformis, UniProt P07374). Put plainly: Kinetic study, Lineweaver–Burk plot analysis. In kind it is biochemical. Conditions: varying concentrations of inhibitor and urea; Vmax decreased, Km increased.

Chain of urease (JBU; EC 3.5.1.5) (P07374 whole entry, looked up): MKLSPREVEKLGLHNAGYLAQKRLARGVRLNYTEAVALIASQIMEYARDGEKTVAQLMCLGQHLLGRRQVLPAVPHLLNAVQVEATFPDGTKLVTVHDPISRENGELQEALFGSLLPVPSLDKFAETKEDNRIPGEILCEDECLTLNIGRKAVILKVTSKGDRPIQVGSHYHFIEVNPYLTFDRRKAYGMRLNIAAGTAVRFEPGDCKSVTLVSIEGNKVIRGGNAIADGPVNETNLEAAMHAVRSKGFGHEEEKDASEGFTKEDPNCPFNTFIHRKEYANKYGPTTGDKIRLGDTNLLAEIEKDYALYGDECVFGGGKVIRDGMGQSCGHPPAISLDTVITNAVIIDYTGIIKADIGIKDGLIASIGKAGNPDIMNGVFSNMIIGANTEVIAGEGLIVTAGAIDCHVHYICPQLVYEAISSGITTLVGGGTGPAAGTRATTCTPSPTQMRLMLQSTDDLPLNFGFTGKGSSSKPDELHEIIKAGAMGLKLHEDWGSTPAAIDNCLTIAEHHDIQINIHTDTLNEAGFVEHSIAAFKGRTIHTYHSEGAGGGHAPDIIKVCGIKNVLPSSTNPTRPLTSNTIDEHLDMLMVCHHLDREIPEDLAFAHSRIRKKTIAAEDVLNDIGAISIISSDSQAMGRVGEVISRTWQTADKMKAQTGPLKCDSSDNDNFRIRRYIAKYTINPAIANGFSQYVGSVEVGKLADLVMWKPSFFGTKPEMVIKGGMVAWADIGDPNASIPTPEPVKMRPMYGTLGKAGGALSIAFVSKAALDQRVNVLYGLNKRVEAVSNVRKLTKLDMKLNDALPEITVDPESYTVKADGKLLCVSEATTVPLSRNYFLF
Chain of Jack bean urease (P07374 whole entry, looked up): as above

Turning to `CCc1ccc(NC(=O)COc2ccc(-c3nc4cc(C(=O)N5CCN(c6ccccc6)CC5)ccc4[nH]3)cc2OC)cc1` [Compound 9f, N-(4-Ethylphenyl)−2-(2-methoxy-4-(5-(4-phenylpiperazine-1-carbonyl)−1H-benzo[d]imidazol-2-yl)phenoxy)acetamide], it took 510 ± 100 nM to reach half-maximal inhibition on urease (JBU; EC 3.5.1.5) (IC50).
Still for that read-out and setting: as for `COc1cc(-c2nc3cc(C(=O)N4CCN(c5ccccc5)CC4)ccc3[nH]2)ccc1OCC(=O)Nc1ccc(C)cc1` [Compound 9d, 2-(2-Methoxy-4-(5-(4-phenylpiperazine-1-carbonyl)−1H-benzo[d]imidazol-2-yl)phenoxy)-N-(p-tolyl)acetamide], the figure is 12200 ± 1090 nM; as for `COc1cc(-c2nc3cc(C(=O)N4CCN(c5ccccc5)CC4)ccc3[nH]2)ccc1OCC(=O)Nc1ccc(Cl)cc1` [Compound 9k, N-(4-Chlorophenyl)−2-(2-methoxy-4-(5-(4-phenylpiperazine-1-carbonyl)−1H-benzo[d]imidazol-2-yl)phenoxy)acetamide], 1780 ± 240 nM.
As for `COc1cc(-c2nc3cc(C(=O)N4CCN(c5ccccc5)CC4)ccc3[nH]2)ccc1OCC(=O)Nc1ccccc1` [Compound 9a, 2-(2-Methoxy-4-(5-(4-phenylpiperazine-1-carbonyl)−1H-benzo[d]imidazol-2-yl)phenoxy)-N-phenylacetamide], at urease (JBU; EC 3.5.1.5), it took 11100 ± 1180 nM to reach half-maximal inhibition (IC50). The “fold more potent than standard thiourea (X)” value on urease (JBU; EC 3.5.1.5) (ratio of IC50 values, standard thiourea vs compound) is “two-fold”.
`COc1cc(-c2nc3cc(C(=O)N4CCN(c5ccccc5)CC4)ccc3[nH]2)ccc1OCC(=O)Nc1cccc(Cl)c1` [Compound 9j, N-(3-Chlorophenyl)−2-(2-methoxy-4-(5-(4-phenylpiperazine-1-carbonyl)−1H-benzo[d]imidazol-2-yl)phenoxy)acetamide]: on urease (JBU; EC 3.5.1.5), the IC50 was determined as 2720 ± 70 nM.
In the case of `COc1ccc(NC(=O)COc2ccc(-c3nc4cc(C(=O)N5CCN(c6ccccc6)CC5)ccc4[nH]3)cc2OC)cc1` [Compound 9 g, 2-(2-Methoxy-4-(5-(4-phenylpiperazine-1-carbonyl)−1H-benzo[d]imidazol-2-yl)phenoxy)-N-(4-methoxyphenyl)acetamide], the “fold more potent than 9d” value on urease (JBU; EC 3.5.1.5) (ratio of IC50 values vs compound 9d) is “seven-fold”.
For `COc1cc(-c2nc3cc(C(=O)N4CCN(c5ccccc5)CC4)ccc3[nH]2)ccc1OCC(=O)Nc1ccccc1F` [Compound 9 h, N-(2-Fluorophenyl)−2-(2-methoxy-4-(5-(4-phenylpiperazine-1-carbonyl)−1H-benzo[d]imidazol-2-yl)phenoxy)acetamide], 2400 ± 360 nM corresponded to half-maximal inhibition against urease (JBU; EC 3.5.1.5) (IC50).
At urease (JBU; EC 3.5.1.5), `COc1cc(-c2nc3cc(C(=O)N4CCN(c5ccccc5)CC4)ccc3[nH]2)ccc1OCC(=O)Nc1cccc([N+](=O)[O-])c1` [Compound 9 L, 2-(2-Methoxy-4-(5-(4-phenylpiperazine-1-carbonyl)−1H-benzo[d]imidazol-2-yl)phenoxy)-N-(3-nitrophenyl)acetamide] yielded an IC50 of 150 ± 90 nM. At Jack bean urease, the “mode of enzyme inhibition” value is recorded as “mixed inhibitor”.
Turning to `COc1cc(-c2nc3cc(C(=O)N4CCN(c5ccccc5)CC4)ccc3[nH]2)ccc1OCC(=O)Nc1ccccc1Cl` [Compound 9i, N-(2-Chlorophenyl)−2-(2-methoxy-4-(5-(4-phenylpiperazine-1-carbonyl)−1H-benzo[d]imidazol-2-yl)phenoxy)acetamide], the IC50 at urease (JBU; EC 3.5.1.5) stood at 9240 ± 370 nM.
On the same count and under the same terms, as for `COc1cc(-c2nc3cc(C(=O)N4CCN(c5ccccc5)CC4)ccc3[nH]2)ccc1OCC(=O)Nc1ccc([N+](=O)[O-])cc1` [Compound 9 m, 2-(2-Methoxy-4-(5-(4-phenylpiperazine-1-carbonyl)−1H-benzo[d]imidazol-2-yl)phenoxy)-N-(4-nitrophenyl)acetamide], the figure is 350 ± 340 nM; as for `COc1cc(-c2nc3cc(C(=O)N4CCN(c5ccccc5)CC4)ccc3[nH]2)ccc1OCC(=O)Nc1c(C)cccc1C` [Compound 9e, N-(2,6-Dimethylphenyl)−2-(2-methoxy-4-(5-(4-phenylpiperazine-1-carbonyl)−1H-benzo[d]imidazol-2-yl)phenoxy)acetamide], 1260 ± 60 nM.
`COc1cc(-c2nc3cc(C(=O)N4CCN(c5ccccc5)CC4)ccc3[nH]2)ccc1OCC(=O)Nc1ccccc1C` [Compound 9b, 2-(2-Methoxy-4-(5-(4-phenylpiperazine-1-carbonyl)−1H-benzo[d]imidazol-2-yl)phenoxy)-N-(o-tolyl)acetamide]: the IC50 against urease (JBU; EC 3.5.1.5) was found to be 820 ± 100 nM.

The values are drawn from paper PMC12335596 (Scientific Reports, 2025).
